Measured values: publication PMC9967275, “Screening the Pathogen Box to Discover and Characterize New Cruzain and TbrCatL Inhibitors” (Pathogens, 2023)
Where two headings read alike, the source gives them in different places.

Key:
[1] = molecular target: cruzain (Trypanosoma cruzi, UniProt P25779); assay: biochemical;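 on Cruzain 0’ Inhibition: at 5 µM compound concentration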;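 on Cruzain 10’ Inhibition: at 5 µM compound concentration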;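 on Cruzain Inhibition 0’: at 5 µM compound concentration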;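 on Cruzain Inhibition 10’: at 5 µM compound concentration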
Summary of the method: (§1)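 Recombinant enzymes assayed by Z-Phe-Arg-AMC cleavage at 25 °C, fluorescence 340/440 nm over 5–7 min, with 10 min or no enzyme–compound preincubation.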

[2] = molecular target: T1, TbrCatL (Trypanosoma brucei rhodesiense, UniProt Q95PM0); assay: TbrCatL enzymatic inhibition assay (cleavage of fluorogenic substrate Z-FR-AMC); type: biochemical; conditions: for TbrCatL 0’ Inhibition / TbrCatL 10’ Inhibition: sheet "Screening results";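 on TbrCatL 0’ Inhibition: at 5 µM compound concentration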;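 on TbrCatL 10’ Inhibition: at 5 µM compound concentration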;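 on TbrCatL Inhibition 0’: at 5 µM compound concentration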;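 on TbrCatL Inhibition 10’: at 5 µM compound concentration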
T1 construct: Conor Caffrey (University of California San Diego)
Summary of the method: as §1

[3] = read-out: Cruzain 0’ Inhibition, 0’ (pre-incubation time), sheet "Screening results"
[4] = read-out: Cruzain 10’ Inhibition, 10’ (pre-incubation time), sheet "Screening results"
[5] = read-out: Inhibition at 5 µM (Mean ± SEM %) Cruzain 0′, 5 µM, no pre-incubation, initial screening
[6] = read-out: Inhibition at 5 µM (Mean ± SEM %) Cruzain 10′ inc, 5 µM, 10′ pre-incubation, initial screening
[7] = read-out: Inhibition at 100 µM (Mean ± SEM %) Cruzain 0′, 100 µM, no pre-incubation, solid samples
[8] = read-out: Inhibition at 100 µM (Mean ± SEM %) Cruzain 10′ inc, 100 µM, 10′ pre-incubation, solid samples
[9] = read-out: Inhibition of cruzain or TbrCatL (either enzyme) in the initial screening, 5 µM, either cruzain or TbrCatL, with or without pre-incubation
[10] = read-out: Inhibition at 5 µM (Mean ± SEM %) TbrCatL 0′
[11] = read-out: Inhibition at 5 µM (Mean ± SEM %) TbrCatL 10′ inc
[12] = read-out: Inhibition at 100 µM (Mean ± SEM %) TbrCatL 0′
[13] = read-out: Inhibition at 100 µM (Mean ± SEM %) TbrCatL 10′ inc
[14] = read-out: TbrCatL 0’ Inhibition
[15] = read-out: TbrCatL 10’ Inhibition
[16] = 0’ (no pre-incubation), sheet Screening results
[17] = 10’ (pre-incubation), sheet Screening results
[18] = 0’ (pre-incubation time), Pathogen Box screening results
[19] = 10’ (pre-incubation time), Pathogen Box screening results
[20] = 0’ (pre-incubation time), sheet "Screening results"
[21] = 10’ (pre-incubation time), sheet "Screening results"

T1 sequence (Q95PM0 entry or part of it): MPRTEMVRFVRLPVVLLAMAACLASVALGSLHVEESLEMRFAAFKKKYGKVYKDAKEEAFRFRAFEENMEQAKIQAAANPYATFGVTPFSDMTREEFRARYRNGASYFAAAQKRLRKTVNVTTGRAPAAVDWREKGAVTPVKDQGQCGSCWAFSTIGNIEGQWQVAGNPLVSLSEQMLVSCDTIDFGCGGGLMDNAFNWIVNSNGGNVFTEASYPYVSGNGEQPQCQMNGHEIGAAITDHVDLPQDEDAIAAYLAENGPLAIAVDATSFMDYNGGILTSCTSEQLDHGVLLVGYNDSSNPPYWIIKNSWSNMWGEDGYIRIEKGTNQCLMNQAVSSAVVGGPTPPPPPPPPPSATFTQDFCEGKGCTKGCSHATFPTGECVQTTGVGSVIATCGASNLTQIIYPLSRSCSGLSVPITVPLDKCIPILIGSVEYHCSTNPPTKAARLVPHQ
Chain of cruzain (P25779 123-337 limits assumed): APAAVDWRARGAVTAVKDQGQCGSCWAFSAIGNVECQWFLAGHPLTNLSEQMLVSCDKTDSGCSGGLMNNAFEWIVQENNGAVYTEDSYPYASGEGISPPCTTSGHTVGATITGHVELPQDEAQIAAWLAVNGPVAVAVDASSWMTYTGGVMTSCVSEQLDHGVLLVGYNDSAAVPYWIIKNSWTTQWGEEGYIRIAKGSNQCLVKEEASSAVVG

Structure (SMILES)	Cruzain Inhibition 0’ [1, 16]	Cruzain Inhibition 10’ [1, 17]	TbrCatL Inhibition 0’ [2, 16]	TbrCatL Inhibition 10’ [2, 17]	Cruzain 0’ Inhibition [1, 20]	Cruzain 10’ Inhibition [1, 21]	TbrCatL 0’ Inhibition ([2]; 0’ (pre-incubation time))	TbrCatL 10’ Inhibition ([2]; 10’ (pre-incubation time))	other results
N#Cc1ccc(-c2cnc(N)c(-c3ccc(C(N)=O)cc3)n2)cc1 [MMV085499]									inhibition at 5 µM [1, 3]: 0.5%; inhibition at 5 µM [1, 4]: 25%; inhibition at 5 µM [1, 5]: 2 ± 3%; inhibition at 5 µM [1, 6]: 25 ± 4%; inhibition at 100 µM [1, 7]: 0%; inhibition at 100 µM [1, 8]: 0%; inhibition at 5 µM [1, 9]: ≥ 40%; inhibition at 5 µM [2, 10]: 12 ± 8%; inhibition at 5 µM [2, 11]: 46 ± 5%; inhibition at 100 µM [2, 12]: 26 ± 18%; inhibition at 100 µM [2, 13]: 0%; inhibition at 5 µM [2, 14]: 9%; inhibition at 5 µM [2, 15]: 46%
CCOC(=O)NC(=O)c1ccsc1NC(=O)c1nc2ccccc2s1 [MMV090930]	-18%	3%	1.3%	0.3%					
O=C(Nc1nnc(-c2ccc(Cl)cc2)o1)c1cccc(C(F)(F)F)c1 [MMV102872]	-1.6%	-10%	0.5%	-16%					
CCC(C)NC(=O)c1ccc(NC(=O)C2(c3ccccc3)CCCC2)cc1 (centres unmarked) [MMV146306]									Cruzain Inhibition 0’ [1, 18]: 0.6%; Cruzain Inhibition 10’ [1, 19]: 1.8%; TbrCatL Inhibition 0’ [2, 18]: -3.2%; TbrCatL Inhibition 10’ [2, 19]: -6.5%
CCOC(=O)c1c(NC(=O)c2c(F)c(F)c(F)c(F)c2F)sc(C(N)=O)c1C [MMV153413]					0.7%	23%	1.1%	39%	
Cc1cc(Cl)ccc1NC(=O)CCc1ccc(S(=O)(=O)NCC(C)C)cc1 [MMV161996]									Cruzain Inhibition 0’ [1, 18]: -2.2%; Cruzain Inhibition 10’ [1, 19]: 9%; TbrCatL Inhibition 0’ [2, 18]: 15%; TbrCatL Inhibition 10’ [2, 19]: 1.5%
CNC(=O)C1Cc2ccccc2N1C(=O)Cc1ccc(F)cc1 (centres unmarked) [MMV188296]	10%	10%	14%	13%					
COc1ccc(C2(C(=O)Nc3ccc(Br)cc3)CCCC2)cc1 [MMV200748]					3.8%	4%	-2.7%	-3%	
COc1ccc(OC(C)C(=O)Nc2ccc(Cl)cc2C)cc1 (centres unmarked) [MMV202458]	-14%	-11%	-16%	-19%					
CCC(=O)Nc1ccccc1C(=O)Nc1ccccn1 [MMV202553]	15%	14%	15%	7%					
COc1cccc(NC(=O)c2c(NC(=O)c3cccnc3)sc3c2CCC3)c1 [MMV228911]									Cruzain Inhibition 0’ [1, 18]: -1.4%; Cruzain Inhibition 10’ [1, 19]: 4.7%; TbrCatL Inhibition 0’ [2, 18]: -8.5%; TbrCatL Inhibition 10’ [2, 19]: 4.5%
COc1cccc(-n2nnnc2S(C)(=O)=O)c1 [MMV272144]									Cruzain Inhibition 0’ [1, 18]: -1.3%; Cruzain Inhibition 10’ [1, 19]: 11%; TbrCatL Inhibition 0’ [2, 18]: -11%; TbrCatL Inhibition 10’ [2, 19]: 9%
COc1cccc(-c2cc3c(Nc4cccnc4)nccc3[nH]2)c1 [MMV392832]									Cruzain Inhibition 0’ [1, 18]: 8.5%; Cruzain Inhibition 10’ [1, 19]: -3.6%; TbrCatL Inhibition 0’ [2, 18]: 6%; TbrCatL Inhibition 10’ [2, 19]: -6.4%
CN1CCN(c2nccc3[nH]c(-c4cccc(F)c4)cc23)CC1 [MMV393144]					-15%	-11%	-8.5%	-8%	
Cc1cc(=O)[nH]c(-n2nc(C)cc2C)n1 [MMV393995]									Cruzain Inhibition 0’ [1, 18]: -12%; Cruzain Inhibition 10’ [1, 19]: -0.3%; TbrCatL Inhibition 0’ [2, 18]: -13%; TbrCatL Inhibition 10’ [2, 19]: -7%
CCc1nc2ccc(C(=O)NCc3ccc4c(c3)OCO4)cn2c1N(C)Cc1cccs1 [MMV407539]					-4%	-3%	-10%	-3.2%	
CCOc1ccccc1NC(C)C(=O)Nc1cc(C(F)(F)F)ccc1N1CCOCC1 (centres unmarked) [MMV407834]					-3.4%	4%	-3%	-7%	
COC(=O)c1c(NC(=O)c2c(F)c(F)c(F)c(F)c2F)sc2c1CCCCC2 [MMV461553]	-34%	-24%	-16%	9%					

Structure (SMILES)	Cruzain Inhibition 0’ [1, 16]	Cruzain Inhibition 10’ [1, 17]	TbrCatL Inhibition 0’ [2, 16]	TbrCatL Inhibition 10’ [2, 17]	Cruzain 0’ Inhibition [1, 20]	Cruzain 10’ Inhibition [1, 21]	TbrCatL 0’ Inhibition ([2]; 0’ (pre-incubation time))	TbrCatL 10’ Inhibition ([2]; 10’ (pre-incubation time))	other results
CC(C)(C)c1cnc(NC(=O)c2ccccc2O)s1 [MMV495543]									Cruzain Inhibition 0’ [1, 18]: -17%; Cruzain Inhibition 10’ [1, 19]: 3.4%; TbrCatL Inhibition 0’ [2, 18]: -9%; TbrCatL Inhibition 10’ [2, 19]: 6.5%
CS(=O)(=O)Cc1nc2ccccc2oc1=O [MMV553002]	18%	12%	19%	19%					
c1ccc(-c2cc(N3CCCCC3)c3ccccc3n2)nc1 [MMV560185]	5.5%	-4.5%	4.5%	-2.4%					
CCN(CC)S(=O)(=O)c1ccc(C(=O)Nc2cc(C)nn2-c2nc(C)c(C)c(=O)[nH]2)cc1 [MMV595321]	-13%	-3.8%	-23%	-29%					
CCC(Sc1nc2ccccc2o1)C(=O)Nc1nnc(C)s1 (centres unmarked) [MMV611037]					0.2%	4%	6%	5%	
O=C(NCCN1CCCC1)c1cc(NCCN2CCOCC2)nc2ccc(Cl)cc12 [MMV634140]									inhibition at 5 µM [1, 3]: 24%; inhibition at 5 µM [1, 4]: 31%; inhibition at 5 µM [1, 5]: 24 ± 1%; inhibition at 5 µM [1, 6]: 31 ± 3%; inhibition at 5 µM [1, 9]: ≥ 40%; inhibition at 5 µM [2, 10]: 11 ± 1%; inhibition at 5 µM [2, 11]: 42 ± 3%; inhibition at 5 µM [2, 14]: 11%; inhibition at 5 µM [2, 15]: 42%
Cc1ccc(C(=O)Nc2ccc(S(=O)(=O)O)c3cc(S(=O)(=O)O)cc(S(=O)(=O)O)c23)cc1NC(=O)c1cccc(NC(=O)Nc2cccc(C(=O)Nc3cc(C(=O)Nc4ccc(S(=O)(=O)O)c5cc(S(=O)(=O)O)cc(S(=O)(=O)O)c45)ccc3C)c2)c1 [MMV637953]	32%	21%	-4.4%	-0.2%					
O=C(Nc1ccc2c(c1)B(O)OC2)c1ccccc1C(F)(F)F [MMV652003]	22%	16%	-5.6%	-1.7%					
Cc1nc(-c2ccccn2)nc(N(C)CCc2ccccc2)c1Cl [MMV658988]									Cruzain Inhibition 0’ [1, 18]: -3%; Cruzain Inhibition 10’ [1, 19]: 14%; TbrCatL Inhibition 0’ [2, 18]: -5.5%; TbrCatL Inhibition 10’ [2, 19]: 10%
Cc1nc(-c2ccccn2)nc(NCCc2ccc(S(C)(=O)=O)cc2)c1Cl [MMV658993]					-6.4%	9%	-11%	-12%	
Cc1nc(-c2ccccn2)nc(N2CCC(Cc3ccccc3)C2)c1Cl (centres unmarked) [MMV659004]					-2%	12%	-4.5%	-2.3%	
FC(F)(F)c1cc(NCCc2ccccc2)nc(-c2ccccn2)n1 [MMV659010]					-2.5%	6%	8%	9%	
Brc1cncc(-c2cc(NCCCn3ccnc3)nc(-c3ccccc3)n2)c1 [MMV661713]	20%	13%	20%	10%					
Clc1cccc(C(c2ccc(CN3CCNCC3)cc2)n2ccnc2)c1 (centres unmarked) [MMV663250]					-0.3%	10%	-13%	-1.1%	
O=C(NCCN1CCCC1)c1cc(NCCCCN2CCC(F)(F)CC2)nc2ccc(Cl)cc12 [MMV667494]									inhibition at 5 µM [1, 3]: 39%; inhibition at 5 µM [1, 4]: 53%; inhibition at 5 µM [1, 5]: 40 ± 1%; inhibition at 5 µM [1, 6]: 53 ± 1%; inhibition at 100 µM [1, 7]: 0%; inhibition at 100 µM [1, 8]: 70 ± 3%; inhibition at 5 µM [1, 9]: ≥ 60%; inhibition at 5 µM [2, 10]: 31 ± 5%; inhibition at 5 µM [2, 11]: 73 ± 1%; inhibition at 100 µM [2, 12]: 0%; inhibition at 100 µM [2, 13]: 11 ± 8%; inhibition at 5 µM [2, 14]: 32%; inhibition at 5 µM [2, 15]: 73%
Nc1ncc(-c2ccc(C(F)(F)F)nc2)cc1-c1ccc(C(F)(F)F)nc1 [MMV668727]	11%	-3%	6.6%	-4.6%					
Cc1[nH]c2cc(F)cc(F)c2c(=O)c1-c1ccc(Oc2ccc(OC(F)(F)F)cc2)cc1 [MMV671636]					8%	17%	10%	6.6%	
COc1ccc(OC)c(NCc2ccc3nc(N)nc(N)c3c2Cl)c1 [MMV675968]					6.6%	26%	20%	22%	
